Data from patent publication US20240245677A1, “SELECTED COMPOUNDS FOR TARGETED DEGRADATION OF BRD9” (C4 THERAPEUTICS, INC., priority 2021, published 2024).

Tests used:
[1] = Variable temperature XRPD (VT-XRPD) experiments; type: physicochemical
Procedure: To investigate form conversion behavior, variable temperature XRPD experiments were conducted for hydrate Pattern A, hydrate Pattern C, hydrate Pattern F and hetero-solvate Pattern L.
Based on DSC and TGA results, variable temperature XRPD was conducted for Pattern A, at different temperatures, including 25° C., 110° C. and 25° C.
Based on DSC and TGA results, variable temperature XRPD was conducted for Pattern B, at different temperatures, including 25° C., 80° C., 130° C. and 25° C. The sample after heating-cooling was placed at 25° C./75% RH condition for 1 day and investigated by XRPD.
Based on DSC and TGA results, variable temperature XRPD was conducted for Pattern C, at different temperatures, including 25° C., 110° C. and 25° C.
Based on DSC and TGA results, variable temperature XRPD was conducted for Pattern F at different temperatures, including 25° C., 110° C. and 25° C. The sample after heating-cooling was placed at 25° C./75% RH condition for 1 day and investigated by XRPD.
Based on DSC and TGA results, variable temperature XRPD was conducted for Pattern L, at different temperatures, including 25° C., 100° C., 140° C., 180° C. and 25° C. The sample after heating-cooling was placed at 25° C./92% RH condition for 24 h and investigated by XRPD.

IKZF1 = biological target: T1, IKZF1 (Homo sapiens, UniProt Q13422+Q96SW2); assay: IKZF1 HiBiT degradation assay in NCIH929.11 cells; type: cell-based
T1 construct: CRISPR-edited to endogenously express HiBiT tagged IKZF1; host or cells: NCIH929.11

SALL4 = biological target: T2, SALL4 (Homo sapiens, UniProt Q96SW2+Q9UJQ4); assay: SALL4 HiBiT degradation assay in KELLY.2 cells; type: cell-based; conditions: read-out: Mean Emax (%) ± SD
T2 construct: CRISPR-edited to endogenously express HiBiT tagged SALL4; host or cells: KELLY.2
Excerpt: Nano-Glo® HiBiT Lytic Assay System was purchased from Promega (Catalog No. N3050, Madison, WI, USA). […] The HiBiT polypeptide tag was introduced into the C-terminus of the endogenous SALL4 locus by CRISPR-Cas9 to produce the modified KELLY.2 cell line. The HiBiT polypeptide allows reconstitution of NanoBiT enzyme following cell lysis and addition of the complementing LgBiT polypeptide that activates substrate to produce a luminescent signal that is directly proportional to the amount of HiBiT-tagged SALL4.
KELLY.2 cells were routinely sub-cultured to maintain cell density between 30-80% confluence, not to exceed 10 passages. Cells were washed with PBS, trypsinized for 5 minutes at 37° C., and resuspended in fresh growth media without phenol red. […] Cell concentration was adjusted with growth media without phenol red to 2×10^5 cells/mL.
30 nL DMSO was transferred to all control wells.
30 μL of media was dispensed to column 24 as background positive control (P). Plates were spun briefly at 1000 rpm and cells were incubated at 37° C., 5% CO2 for 6 hours. Final concentration of DMSO was 0.1% for all samples.
Cellular SALL4 protein level was determined based on quantification of HiBiT using Nano-Glo® HiBiT Lytic Assay System (Promega). […] Cells treated in the absence of the test compound (0.1% DMSO vehicle) were the negative control (N) and wells containing only media were the positive control (P).
Percent response of compound-treated samples (T) were calculated by normalizing to the DMSO treated negative (N) controls on the same microtiter plate after background (i.e., positive control) signal subtraction:
Curve fit and DC50 (concentration that degrades 50% SALL4) determination was performed by 4 parametric logistic fit analysis using software such as GraphPad Prism software (GraphPad Software, LLC, San Diego, CA, USA). The fit was performed through minimization of the root mean squared error between observed and calculated values of the four-parameter logistic equation using the simplex optimizer of the Apache Commons Math library. […] DC50 values were computed as the concentrations where the fitted curves cross the 50% response level. Averages and standard deviations were computed from replicates of the experiment.

T1 sequence (Q13422 whole entry): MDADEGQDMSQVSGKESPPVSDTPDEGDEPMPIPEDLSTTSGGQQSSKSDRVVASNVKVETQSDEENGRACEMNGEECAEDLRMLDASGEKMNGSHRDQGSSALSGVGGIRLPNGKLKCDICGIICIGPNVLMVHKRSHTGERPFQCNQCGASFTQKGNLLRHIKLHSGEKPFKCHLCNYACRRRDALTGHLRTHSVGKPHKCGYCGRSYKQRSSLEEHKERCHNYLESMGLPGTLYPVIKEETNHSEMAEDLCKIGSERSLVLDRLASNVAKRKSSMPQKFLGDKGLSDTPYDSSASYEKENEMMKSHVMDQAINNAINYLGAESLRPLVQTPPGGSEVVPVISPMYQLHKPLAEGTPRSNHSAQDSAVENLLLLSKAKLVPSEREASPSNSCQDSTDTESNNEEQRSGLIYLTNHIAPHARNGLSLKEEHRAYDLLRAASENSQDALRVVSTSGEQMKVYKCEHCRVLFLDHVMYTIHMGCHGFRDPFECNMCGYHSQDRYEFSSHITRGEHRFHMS
T1 sequence (Q96SW2 whole entry): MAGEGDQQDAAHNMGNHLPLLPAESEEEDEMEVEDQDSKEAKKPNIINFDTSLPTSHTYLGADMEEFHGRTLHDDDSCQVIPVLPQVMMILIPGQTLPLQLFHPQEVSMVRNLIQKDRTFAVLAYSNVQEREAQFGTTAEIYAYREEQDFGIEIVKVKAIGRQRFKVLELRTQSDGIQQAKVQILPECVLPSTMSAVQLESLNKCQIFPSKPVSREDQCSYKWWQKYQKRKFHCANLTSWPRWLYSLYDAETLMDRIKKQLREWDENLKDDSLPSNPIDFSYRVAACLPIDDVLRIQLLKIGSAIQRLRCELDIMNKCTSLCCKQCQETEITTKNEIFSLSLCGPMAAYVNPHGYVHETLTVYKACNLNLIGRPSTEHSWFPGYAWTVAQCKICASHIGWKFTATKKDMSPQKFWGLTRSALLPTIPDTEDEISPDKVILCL
T1 sequence (Q16531 2-1140 partner limits assumed): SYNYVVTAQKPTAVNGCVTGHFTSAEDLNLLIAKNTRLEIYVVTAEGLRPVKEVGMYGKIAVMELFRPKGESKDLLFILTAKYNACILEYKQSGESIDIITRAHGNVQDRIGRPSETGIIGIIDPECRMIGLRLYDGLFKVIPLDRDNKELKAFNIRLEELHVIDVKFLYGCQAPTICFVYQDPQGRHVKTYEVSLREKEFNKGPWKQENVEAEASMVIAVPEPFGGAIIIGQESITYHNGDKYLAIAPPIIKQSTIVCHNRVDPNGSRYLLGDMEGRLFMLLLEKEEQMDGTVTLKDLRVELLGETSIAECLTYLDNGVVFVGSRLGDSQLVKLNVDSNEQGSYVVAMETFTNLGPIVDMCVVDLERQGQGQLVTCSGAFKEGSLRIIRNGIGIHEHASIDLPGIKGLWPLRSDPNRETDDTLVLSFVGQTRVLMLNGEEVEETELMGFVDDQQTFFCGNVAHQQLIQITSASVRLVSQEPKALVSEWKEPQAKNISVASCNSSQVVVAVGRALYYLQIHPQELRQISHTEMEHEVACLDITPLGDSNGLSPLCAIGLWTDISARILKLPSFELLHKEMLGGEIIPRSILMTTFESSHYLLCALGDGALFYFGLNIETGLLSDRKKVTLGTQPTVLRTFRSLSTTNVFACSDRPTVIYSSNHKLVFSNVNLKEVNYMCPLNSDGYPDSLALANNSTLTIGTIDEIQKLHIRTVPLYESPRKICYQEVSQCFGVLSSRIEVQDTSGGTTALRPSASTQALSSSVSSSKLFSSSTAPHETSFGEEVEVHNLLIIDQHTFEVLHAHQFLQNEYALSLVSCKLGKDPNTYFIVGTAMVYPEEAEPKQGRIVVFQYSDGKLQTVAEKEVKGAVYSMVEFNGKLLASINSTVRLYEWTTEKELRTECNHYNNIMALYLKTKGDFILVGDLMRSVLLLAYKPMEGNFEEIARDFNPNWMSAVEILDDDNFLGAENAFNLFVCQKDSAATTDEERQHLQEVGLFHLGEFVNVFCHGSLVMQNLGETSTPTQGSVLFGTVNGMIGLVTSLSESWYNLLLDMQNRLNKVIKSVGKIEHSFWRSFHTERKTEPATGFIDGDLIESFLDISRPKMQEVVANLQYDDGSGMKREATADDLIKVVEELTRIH
T2 sequence (Q9UJQ4 whole entry): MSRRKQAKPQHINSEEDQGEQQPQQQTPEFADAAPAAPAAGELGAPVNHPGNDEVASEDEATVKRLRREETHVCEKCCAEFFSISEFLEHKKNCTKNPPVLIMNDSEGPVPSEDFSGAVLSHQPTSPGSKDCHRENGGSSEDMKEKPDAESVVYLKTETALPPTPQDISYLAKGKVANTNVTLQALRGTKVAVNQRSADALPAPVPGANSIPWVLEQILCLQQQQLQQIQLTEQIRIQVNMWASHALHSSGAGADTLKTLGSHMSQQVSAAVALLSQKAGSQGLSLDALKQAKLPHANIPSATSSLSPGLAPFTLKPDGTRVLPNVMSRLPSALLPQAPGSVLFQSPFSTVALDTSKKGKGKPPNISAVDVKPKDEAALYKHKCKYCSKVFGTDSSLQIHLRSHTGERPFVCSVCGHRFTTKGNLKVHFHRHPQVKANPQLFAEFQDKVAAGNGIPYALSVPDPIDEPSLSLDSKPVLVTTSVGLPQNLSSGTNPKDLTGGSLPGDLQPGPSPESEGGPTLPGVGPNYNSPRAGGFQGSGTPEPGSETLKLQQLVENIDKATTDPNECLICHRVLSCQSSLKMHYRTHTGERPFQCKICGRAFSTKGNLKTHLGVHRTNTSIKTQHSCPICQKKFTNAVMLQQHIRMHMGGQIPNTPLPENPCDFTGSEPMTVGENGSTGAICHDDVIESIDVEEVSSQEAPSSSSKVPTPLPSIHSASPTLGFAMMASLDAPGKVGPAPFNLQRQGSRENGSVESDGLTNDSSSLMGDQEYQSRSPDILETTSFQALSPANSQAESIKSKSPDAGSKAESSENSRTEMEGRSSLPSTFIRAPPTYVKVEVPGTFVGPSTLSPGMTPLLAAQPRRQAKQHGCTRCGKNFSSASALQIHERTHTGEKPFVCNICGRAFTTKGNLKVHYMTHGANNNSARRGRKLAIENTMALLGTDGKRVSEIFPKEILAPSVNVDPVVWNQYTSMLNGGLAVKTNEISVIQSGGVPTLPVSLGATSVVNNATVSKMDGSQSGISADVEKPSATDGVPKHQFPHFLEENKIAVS
T2 sequence (Q96SW2 whole entry): as the sequence (Q96SW2 whole entry) above
T2 sequence (Q16531 2-1140 partner limits assumed): as the sequence (Q16531 2-1140 partner limits assumed) above

In the case of `COc1cc(-c2cn(C)c(=O)c(C)c2C)cc(OC)c1CN1CC[C@H](N2CCN(c3ccc(N[C@H]4CCC(=O)NC4=O)cc3F)CC2)C(F)(F)C1` [Pattern F], the XRPD ([1]; 25° C. (start)) is reported as “Pattern F”, the XRPD ([1]; Cool to 25° C.) is reported as “Pattern H” and the XRPD ([1]; Heat to 110° C.) is reported as “Pattern H”.

For `COc1cc(-c2cn(C)c(=O)c(C)c2C)cc(OC)c1CN1CC[C@H](N2CCN(c3ccc(N[C@H]4CCC(=O)NC4=O)cc3F)CC2)C(F)(F)C1` [Pattern L], the XRPD ([1]; 25° C. (start)) was “Pattern L”, the XRPD ([1]; 25° C./92.5% RH hold 1 day) was “Pattern M” and the XRPD ([1]; Cool to 25° C.) was “Pattern M”. The XRPD ([1]; Heat to 100° C.) was “Pattern L”.

In the case of `Nc1cccc2c1C(=O)N(C1CCC(=O)NC1=O)C2=O` (stereo not drawn) [Pomalidomide, reference compound], the “degradation of IKZF1 induced” value (IKZF1; positive control, 6 hours) is reported as 8000, the Emax (IKZF1; read-out: Mean Emax (%) ± SD) is reported as 20.8 ± 3.2% and the Emax (SALL4) is reported as 9.5 ± 1.5%.

In the case of `COc1cc(-c2cn(C)c(=O)c(C)c2C)cc(OC)c1CN1CC[C@H](N2CCN(c3ccc(N[C@H]4CCC(=O)NC4=O)cc3F)CC2)C(F)(F)C1` [Pattern B], the XRPD ([1]; 25° C. (start)) is reported as “Pattern B”.

In the case of `COc1cc(-c2cn(C)c(=O)c(C)c2C)cc(OC)c1CN1CC[C@H](N2CCN(c3ccc(N[C@H]4CCC(=O)NC4=O)cc3F)CC2)C(F)(F)C1` [Pattern C], the XRPD ([1]; 25° C. (start)) is reported as “Pattern C”, the XRPD ([1]; 25° C./50% RH hold 2 h) is reported as “Pattern C” and the XRPD ([1]; Cool to 25° C.) is reported as “Metastable Pattern I”. The XRPD ([1]; Heat to 110° C.) was “Metastable Pattern I”.
